Assay results from patent US20260337191A1, “CRYSTAL FORM OF EMRACLIDINE, PREPARATION METHOD THEREFOR, AND USE THEREOF” (Cerevel Therapeutics, LLC, priority 2022, published 2026).

Assays:
[1] = Phase-Ib clinical result, Cerevel Therapeutics; cited from earlier work
[2] = Storage stability of crystal form drug substance (HPLC purity and XRPD); assay type: physicochemical
Method: The X-ray powder diffraction pattern described in the invention is collected by a Bruker X-ray powder diffractometer. The parameters for the X-ray powder diffraction method according to the invention are as follows: • X-ray light source: Cu, Kα, • Kα1 (Å): 1.54060; Kα2 (Å): 1.54439, • Kα2/Kα1 intensity ratio: 0.50.
An appropriate amount of a crystal-form-CSI sample was packaged under corresponding packaging conditions and stored at 40° C./75% RH for a certain period of time, the purity and crystal form were determined by HPLC and XRPD, and the results are shown in Table 7.
Open: a sample was placed in a glass vial without a lid and stored in corresponding environment while the vial was open.
An appropriate amount of a crystal-form-CSII sample was packaged under corresponding packaging conditions and stored for a certain period of time at 25° C./60% RH, 40° C./75% RH, and 60° C./75% RH, the purity and crystal form were determined by HPLC and XRPD, and the result is shown in Table 12.
Sealing: The sample was placed in a glass vial, which was covered by a lid and sealed in a double-layer PE bag, followed by an aluminum foil bag. […]
Sealed: The sample was placed in a glass vial, which was covered by a lid and sealed in a double-layer PE bag, followed by an aluminum foil bag. […]
An appropriate amount of a crystal-form-CSV sample was packaged under corresponding packaging conditions and stored for a certain period of time at 25° C./60% RH, 40° C./75% RH, and 60° C./75% RH, the purity and crystal form were determined by HPLC and XRPD, and the result is shown in Table 16.

[3] = Thermal gravimetric analysis (TGA); assay type: physicochemical; conditions: 10° C./min, N2
Method: The thermal gravimetric analysis (TGA) pattern as described in the invention is collected by TA Q500. The parameters for the thermal gravimetric analysis (TGA) method described in the invention are as follows: • scanning speed: 10° C./min, • protective gas: N2.

[4] = Hygroscopicity by dynamic vapor sorption (DVS); assay type: physicochemical; conditions: for weight increase due to hygroscopicity: 25° C.
Method: The dynamic vapor sorption (DVS) pattern for the experiment is collected by an Intrinsic dynamic vapor sorption instrument manufactured by Surface Measurement Systems Ltd. (SMS). Control software for the instrument is DVS-Intrinsic control software. The method parameters of the dynamic vapor sorption instrument are as follows: • temperature: 25° C., • carrier gas, and flow rate: N2, and 200 ml/min, • mass change per unit time: 0.002%/min, • relative humidity range: 0% RH-95% RH.
(§1) About 10 mg of a crystal-form-CSI sample was taken and tested for hygroscopicity using a dynamic vapor sorption (DVS) instrument, with a relative humidity cycle of 30%-90%-0%-90% RH, and a mass change for each humidity was recorded. The sample was tested by XRPD before and after DVS testing. […] The DVS pattern of crystal form CSI is shown in FIG. 13, and the weight increase of crystal form CSI due to hygroscopicity is 0.36% at 30%-80% RH.
as §1, with “crystal-form-CSII” for “crystal-form-CSI”, “0%-90%-0%” for “30%-90%-0%-90%”, “CSII” for “CSI”, “18,” for “13,”, “0.28%” for “0.36%”, “0%-80%” for “30%-80%”
as §1, with “crystal-form-CSIII” for “crystal-form-CSI”, “0%-90%-0%” for “30%-90%-0%-90%”, “CSIII” for “CSI”, “23,” for “13,”, “0.21%” for “0.36%”, “0%-80%” for “30%-80%”
as §1, with “crystal-form-CSIV” for “crystal-form-CSI”, “0%-90%-0%” for “30%-90%-0%-90%”, “CSIV” for “CSI”, “26,” for “13,”, “0.11%” for “0.36%”, “0%-80%” for “30%-80%”
as §1, with “crystal-form-CSV” for “crystal-form-CSI”, “a” for “a relative humidity”, “CSV” for “CSI”, “29,” for “13,”, “0.29%” for “0.36%”

[5] = Stability under mechanical force: ball milling, XRPD; assay type: physicochemical; conditions: 500 rpm, 5 minutes, XRPD before and after
Method: A crystal-form-CSII sample was ball-milled at a vibration speed of 500 rpm for 5 minutes using a ball mill, the sample before and after ball milling was tested by XRPD, the test result is shown in FIG. 17, and crystal form CSII is not changed after ball milling.
A crystal-form-CSIII sample was ball-milled at a vibration speed of 500 rpm for 5 minutes using a ball mill. The sample before and after ball milling was tested by XRPD, the test result is shown in FIG. 22, and crystal form CSIII is not changed after the ball milling.
A crystal-form-CSIV sample was ball-milled at a vibration speed of 500 rpm for 5 minutes using a ball mill, the sample before and after ball milling was tested by XRPD, the test result is shown in FIG. 25, and crystal form CSIV is not changed after ball milling.
A crystal-form-CSV sample was ball-milled at a vibration speed of 500 rpm for 5 minutes using a ball mill, the sample before and after ball milling was tested by XRPD, the test result is shown in FIG. 28, and crystal form CSV is not changed after ball milling.

[6] = Stability under mechanical force: tableting, XRPD; assay type: physicochemical; conditions: 15 KN, φ 6 mm round tooling, XRPD before and after
[7] = Crystal form stability in formulation process, XRPD; assay type: physicochemical; conditions: formula Table 8, process Table 10, XRPD
Method: A crystal-form-CSI formulation was prepared by using the formulation formula shown in table 8 and the formulation process shown in table 10, and a formula for mixture of excipients is shown in table 9. A mixture of excipients and the sample before and after the formulation formulas were tested by XRPD, and the result is shown in FIG. 14.
(§2) A crystal-form-CSII formulation was prepared by using the formulation formula shown in Table 8 and the formulation process shown in Table 10, and an excipient formula is shown in Table 9. A mixture of excipients and the sample before and after the formulation formulas were tested by XRPD, and the result is shown in FIG. 19.
as §2, with “crystal-form-CSV” for “crystal-form-CSII”, “30.” for “19.”

[8] = heated from room temperature to 180° C.

Row | Compound | stable for at least ([2]; 40° C./75% RH) | Crystal Form ([2]; initial (before storage)) | weight increase due to hygroscopicity ([4]; 0%-80% RH) [%] | crystal form after DVS testing ([4]; 0%-90%-0% RH cycle) | crystal form after ball milling [5] | stable for at least ([2]; 25° C./60% RH) | Crystal Form ([2]; 25° C./60% RH, sealed, 6 month) | Purity ([2]; 25° C./60% RH, sealed, 6 month) [%] | Crystal Form ([2]; 40° C./75% RH, sealed, 6 month) | Purity ([2]; 40° C./75% RH, sealed, 6 month) [%] | stable for at least ([2]; 60° C./75% RH) | Purity ([2]; initial (before storage)) [%] | crystal form after tableting [6] | crystal form after formulation formula processes [7] | weight increase due to hygroscopicity ([4]; 30%-80% RH) [%] | change in sample properties after humidity cycle ([4]; 30%-90%-0%-90% RH cycle) | crystal form after DVS testing ([4]; 30%-90%-0%-90% RH cycle) | Crystal Form ([2]; 60° C./75% RH, sealed, 1 month) | TGA weight loss [3, 8] | change in sample properties after humidity cycle ([4]; 0%-90%-0% RH cycle) | other results
1 | Cc1cc(C)c2c(n1)CN(C(=O)CC1CN(c3ccnc(C(F)(F)F)c3)C1)C2 [Emraclidine, 1-(2,4-dimethyl-5,7-dihydro-6H-pyrrolo[3,4-b]pyridin-6-yl)-2-{1-[2-(trifluoromethyl)pyridin-4-yl]azetidin-3-yl}ethanone] | – | – | – | – | – | – | – | – | – | – | – | – | – | – | – | – | – | – | – | – | antipsychotic activities compared to placebos [1]: clinically significant antipsychotic activities
2 | Cc1cc(C)c2c(n1)CN(C(=O)CC1CN(c3ccnc(C(F)(F)F)c3)C1)C2 [Crystal Form CSIII] | at least 2 months | Form CSIII | 0.21 | not changed | not changed | – | – | – | – | – | – | – | – | – | – | – | – | – | – | – | Crystal Form ([2]; 40° C./75% RH, sealed, 2 month): Form CSIII; TGA weight loss ([3]; heated from room temperature to 170° C.): substantially no weight loss
3 | Cc1cc(C)c2c(n1)CN(C(=O)CC1CN(c3ccnc(C(F)(F)F)c3)C1)C2 [Crystal Form CSV] | at least 6 months | Form CSV | – | – | not changed | at least 6 months | Form CSV | 99.96 | Form CSV | 99.96 | at least 2 month | 99.96 | not changed | not changed | 0.29 | no significant change in sample properties | not changed | – | – | – | Crystal Form ([2]; 60° C./75% RH, sealed, 2 month): Form CSV; Purity ([2]; 60° C./75% RH, sealed, 2 month): 99.95%; TGA weight loss ([3]; heated from 35° C. to 150° C.): 3.8%
4 | Cc1cc(C)c2c(n1)CN(C(=O)CC1CN(c3ccnc(C(F)(F)F)c3)C1)C2 [Crystal Form CSIV] | at least 6 months | Form CSIV | 0.11 | not changed | not changed | at least 6 months | Form CSIV | – | Form CSIV | – | at least 1 month | – | – | – | – | – | – | Form CSIV | substantially no weight loss | no significant change in sample properties | –
5 | Cc1cc(C)c2c(n1)CN(C(=O)CC1CN(c3ccnc(C(F)(F)F)c3)C1)C2 [Crystal Form CSI] | at least 6 months | Form CSI | – | – | remains unchanged | – | – | – | – | – | – | 99.53 | remains unchanged | not changed | 0.36 | no significant change in sample properties | remains unchanged | – | – | no significant change in sample properties | Crystal Form ([2]; 40° C./75% RH, open, 6 month): Form CSI; Purity ([2]; 40° C./75% RH, open, 6 month): 99.59%
6 | Cc1cc(C)c2c(n1)CN(C(=O)CC1CN(c3ccnc(C(F)(F)F)c3)C1)C2 [Crystal Form CSII] | at least 6 months | Form CSII | 0.28 | not changed | not changed | at least 6 months | Form CSII | 99.60 | Form CSII | 99.57 | at least 1 month | 99.56 | not changed | not changed | – | – | – | Form CSII | substantially no weight loss | no significant change in sample properties | Purity ([2]; 60° C./75% RH, sealed, 1 month): 99.55%
